# Measured values from US12319967B2, “Methods and compositions for diagnosing and treating prostate cancer based on long noncoding RNA overlapping the LCK gene that regulates prostate cancer cell growth” (University of Virginia Patent Foundation, priority 2019, dated 2025).
# Key:
# [1] = system: HULLK; test: qPCR of HULLK (LCK 3'UTR / exon 13) transcript levels in response to hormone and AR, p300 or Brd4 inhibition; format: cell-based, human; settings: for HULLK expression in response to R1881: 1 nM R1881; for R1881-induced increase in LCK 3'UTR transcript levels: 1 nM R1881, 24 hrs
# Protocol: FIGS. 2A through 2E illustrate that HULLK is an AR-regulated lncRNA. […] LNCaP and C42 cells were transduced with two independent shRNAs to LCK and treated with 0-1 nM R1881. RNA was collected on Day 4 and LCK transcript levels were determined using LCK primers targeting the 3′UTR. […] LNCaP and C42 cells were seeded for 48 hrs, and then, treated with 1 nM R1881 in the presence or absence of 10 μM enzalutamide. RNA was collected 24 hrs after treatment and LCK transcript levels were determined by qPCR using LCK primers targeting the 3′UTR. C4-2, DU145, and PC3 cells were seeded in CSS media for 48 hrs, and then, treated with 1 nM R1881 for 16 hrs. RNA was collected and LCK transcript levels were determined using LCK primers targeting the 3′UTR. […] FIG. 2E illustrates that Brd4 inhibition reduces the hormone induction of HULLK, n=3. LNCaP, C42, or Jurkat cells were seeded for 48 hrs in the appropriate growth media, and then, treated with 1 nM R1881 in the presence or absence of 0.3 μM A-485 or 0.1 μM JQ1. RNA was collected 24 hrs after treatment and LCK transcript levels were determined by qPCR using LCK primers targeting exon 13 or 3′UTR. PSA and TMPRSS2 transcripts were determined to verify the efficacy of p300 and Brd4 inhibition.
# FIGS. 7A and 7B illustrate the regulation of HULLK by the AR in breast cancer cells. […] LNCaP, MCF7, BT549, and MDA-MD-231 cells were seeded in the appropriate growth media, and whole cell lysates were collected 48 hrs later and blotted for AR21 and ERK1/2. […] MCF7, BT549, and MDA-MB-231 cells were seeded in CSS media for 48 hrs, and then, treated with 1 nM R1881 for 16 hrs. RNA was collected and LCK transcript levels were determined using LCK primers targeting the 3′UTR, n=3.
# Cell Culture and Reagents. LNCaP and C4-2 cells (a gift from Dr. L. W. K. Chung) were grown in DMEM:F12 (Invitrogen) with 5% Non-Heat-Inactivated serum (Gemini) and 1% Insulin-Transferrin-Selenium-Ethanolamine (ThermoFisher). CWR22Rv1 (Rv1), VCaP, PC3 (gifts from Drs. Steven Balk, Karen Knudsen, and Chung, respectively), WMPY-1 (ATCC), MCF7, BT549 and MDA-MB-231 (gifts from Dr. Amy Bouton) were grown in DMEM (Invitrogen) with 10% Heat-Inactivated serum. DU145 (a gift from Dr. Chung), PANC1 (a gift from Dr. J. Thomas Parsons), HeLa and Jurkat cells (gifts from Dr. Tim Bender) were grown in RPMI-1640 (Invitrogen) with 10% Heat-Inactivated serum. LHS cells (a gift from Dr. William Hahn) were grown in ProstaLife Epithelial Cell Medium (Lifeline). RWPE-1 (ATCC) cells were grown in Keratinocyte-Serum-Free Media (Invitrogen). For growth and RNA experiments, phenol-red free DMEM:F12 media with 5% Charcoal-Stripped Serum (CSS) (Gemini) was used.
# RNA Isolation, qPCR and ddPCR: RNA was collected using TRIzol and quantitated using a NanoDrop 2000 UV-Vis Spectrophotometer (ThermoFisher). cDNA was synthesized using Superscript IV VILO cDNA synthesis kit (Invitrogen). Quantitative real-time PCR (qPCR) was performed as previously described (17,18). Droplet digital PCR (ddPCR) was executed according to the manufacturer's protocol (Bio-Rad).
# To assess whether this lncRNA is modulated by hormone, transcript levels of this lncRNA were quantified by qPCR using 3′UTR primers in LNCaP and C4-2 cells transduced in the presence of increasing concentrations of R1881 (FIG. 2A). […] This increase was inhibited in the presence of two independent LCK shRNAs in both cell lines.
# This hormone regulation was confirmed by measuring transcript amounts in LNCaP and C4-2 cells treated with vehicle or R1881 in the presence or absence of the anti-androgen enzalutamide (FIG. 2B). As expected, there was an 8-fold and 12-fold R1881-induced increase in LCK 3′UTR transcript levels in LNCaP and C4-2 cells, respectively. […] Androgen deprivation influenced message levels negligibly in LNCaP cells, but decreased transcript amounts of this lncRNA by approximately 2.9-fold in C4-2 cells (FIG. 2B, C4-2 vehicle vs. media). […]
# [2] = system: HULLK; test: qPCR of HULLK (LCK E11, LCK 3'UTR) in cytoplasmic and nuclear fractions of LNCaP cells; format: cell-based, human; settings: 1 nM R1881, 24 hrs
# Protocol: FIGS. 3A and 3B illustrate the results of studies designed to characterize HULLK. […] LNCaP cells were seeded for 48 hrs and treated with 1 nM R1881 for 24 hrs. RNA was collected and cDNA was synthesized using strand-specific primers. qPCR was performed with two independent LCK primer sets that amplify HULLK, n=3. […] LNCaP cells were seeded for 48 hrs and treated with 1 nM R1881 for 24 hrs. Whole cell lysates were separated into cytoplasmic and nuclear fractions by centrifugation. RNA was collected from each fraction and cDNA was synthesized using the iScript cDNA synthesis kit. qPCR was performed with two independent LCK primer sets that amplify HULLK, and cytoplasmic and nuclear control genes, n=3.
# Some lncRNAs show preferential accumulation in the cytoplasm or nucleus, while other lncRNAs are equally expressed in both compartments. To determine the intracellular localization of HULLK, total RNA was collected to synthesize cDNA from cytoplasmic and nuclear fractions of LNCaP cells starved of hormone or exposed to 1 nM R1881 for 24 hrs and carried out qPCR with LCK E11 and LCK 3′UTR primers to amplify HULLK.
structure (smiles),measurement,setting,value
C[C@]1(O)CC[C@H]2[C@@H]3CCC4=CC(=O)CCC4=C3C=C[C@@]21C [R1881],R1881-induced increase in this lncRNA (HULLK),"[1]; AR-null DU145 and PC3 cells, 1 nM R1881, 16 hrs",no R1881-induced increase
same,HULLK expression in response to R1881,[1]; BT549 or MDA-MB-231 cells,not
same,R1881-induced increase in LCK 3'UTR transcript levels,[1]; C4-2 cells,12 fold
same,lncRNA transcripts in response to increasing concentrations of R1881,"[1]; LNCaP and C4-2 cells, 0-1 nM R1881, 3'UTR primers",dose-dependent increase
same,R1881-induced increase in LCK 3'UTR transcript levels,[1]; LNCaP cells,8 fold
same,HULLK expression in response to R1881,[1]; MCF7 cells,increases
same,hormone increase of LCK 3'UTR transcript levels,[2]; cytoplasmic fraction,~7.6 fold
same,hormone increase of LCK E11 transcript levels,[2]; cytoplasmic fraction,approximately 5.3 fold
same,"nuclear transcript amounts (LCK E11, LCK 3'UTR) in response to androgens",[2]; nuclear fraction,not influenced by androgens
